Experimental data: patent US20110082148A1, “TREATING, PREVENTING OR AMELIORATING A HYPERPROLIFERATIVE DISEASE/DISORDER” (priority 2009, published 2011)

Experiments:
[1] = tested on: National Cancer Institute 60 cell line; assay: National Cancer Institute 60 cell line one dose test; type: cell-based; settings: NCI 60 cell line, across many cell lines
Method: FIG. 1 illustrates a National Cancer Institute 60 cell line one dose mean graph for erdosteine. […] A National Cancer Institute 60 cell line test was performed using erdosteine. FIG. 1 illustrates the effectiveness of the erdosteine at inhibiting cancer cell growth in several cell lines. […] A National Cancer Institute 60 cell line test was performed using cinoxacin. FIG. 2 illustrates the effectiveness of the cinoxacin at inhibiting cancer cell growth in several cell lines is shown.

[2] = tested on: HL60 xenograft; type: in vivo
Method: FIG. 4(b) illustrates the tumor volume growth of HL60 xenograft over time after treatment with cinoxacin in dosages of 100 mg/kg and 300 mg/kg as compared to control sample.
FIGS. 4(a) and (b) show the tumor volume growth of an HL60 xenograft over time after treatment with cinoxacin in different dosages as compared to a control sample. The cinoxacin was obtained from Signma Aldrich (MOL_ID—1), and solubilized in […] and phosphate buffered saline and administered […] to test mice. […] The treatment regimen was implemented as 3 day+3 day, with an ip single injection each day. Tumor volume was measured by ruler. […] The mice were provided a single dose daily for ten consecutive days. […] It is believed that higher dosages could also be used without incurring detrimental effects.

[3] = tested on: RPMI-8226-luc human myeloma xenografts; assay: RPMI-8226-luc human myeloma xenografts in NSG mice, survival; type: in vivo, NOD scid gamma (NSG) mice; settings: for survival time: controls all died before 20 days
Excerpt: FIG. 5(a) illustrates the photons/sec/cm^2×10^−6 present over time in RPMI-8226-luc human myeloma xenografts in NSG mice.
FIG. 5(b) illustrates the percentage of male and female mice survival over time when provided varying dosage amounts of cinoxacin as compared to a control sample.
FIG. 5(b) illustrates the survival percentage of male and female mice when treated with various dosages of cinoxacin for a period of 10 to 40 days. FIGS. 5(a) and (b) display that the controls all died before 20 days had passed. The females died around 25 days; however, all the males survived for 40 days when treatment was stopped. […] By the time the drug was administered, the concentration of myeloma cells in female mice had reached about 9×10^6, which appears to be beyond repair.

[4] = Administration to mice, adverse side effects; type: in vivo; settings: from about 25 mg/kg to about 15 mg/kg
Excerpt: However, in any given case, the amount of the compound administered will depend on such factors as the solubility of the active component, the formulation used, subject condition (such as weight), and/or the route of administration.

SMILES	cell growth compared with control specimen [1]	tumor volume increase ([2]; FIG. 4(a), 100 mg/kg compared to 25 mg/kg and 50 mg/kg, 3 day+3 day, single injection each day)	growth of Leukemic cells (tumor volume growth) ([2]; FIG. 4(b), 100 mg/kg and 300 mg/kg vs control, single dose daily for ten consecutive days, particularly at 200 mg/kg)	survival time ([3]; female mice treated with cinoxacin)	survival time ([3]; male mice treated with cinoxacin, treatment stopped at 40 days)	survival compared to female mice and controls ([3]; male mice, 1500 mg/kg/day)	adverse side effects [4]
CCn1nc(C(=O)O)c(=O)c2cc3c(cc21)OCO3 [cinoxacin]	lower than in a control specimen	slower tumor volume increase	substantial slowing down of the growth of Leukemic cells	around 25 days	≥ 40 days	survival was prolonged	without adverse side effects
O=C(O)CSCC(=O)NC1CCSC1=O (stereo not drawn) [erdosteine]	lower than in a control specimen						without adverse side effects
